Source: US20090029943A1, “Glucosamine and Derivatives Thereof Useful as TG Inhibitors” (priority 2005, published 2009)
Entries after “also recorded” stand apart in the source; their conditions may differ.

Key:
[1] = biological target: T1, purified transglutaminase enzyme (Sigma T5398) (UniProt P08587); assay: In vitro assay for inhibition of transglutaminase activity (14C-putrescine incorporation into succinylated casein); assay type: biochemical; details: glucosamine 1, or 100 mM; 37° C., 1 hour; FIG. 2
T1 construct: purchased Sigma T5398
T1 sequence (P08587 1-690): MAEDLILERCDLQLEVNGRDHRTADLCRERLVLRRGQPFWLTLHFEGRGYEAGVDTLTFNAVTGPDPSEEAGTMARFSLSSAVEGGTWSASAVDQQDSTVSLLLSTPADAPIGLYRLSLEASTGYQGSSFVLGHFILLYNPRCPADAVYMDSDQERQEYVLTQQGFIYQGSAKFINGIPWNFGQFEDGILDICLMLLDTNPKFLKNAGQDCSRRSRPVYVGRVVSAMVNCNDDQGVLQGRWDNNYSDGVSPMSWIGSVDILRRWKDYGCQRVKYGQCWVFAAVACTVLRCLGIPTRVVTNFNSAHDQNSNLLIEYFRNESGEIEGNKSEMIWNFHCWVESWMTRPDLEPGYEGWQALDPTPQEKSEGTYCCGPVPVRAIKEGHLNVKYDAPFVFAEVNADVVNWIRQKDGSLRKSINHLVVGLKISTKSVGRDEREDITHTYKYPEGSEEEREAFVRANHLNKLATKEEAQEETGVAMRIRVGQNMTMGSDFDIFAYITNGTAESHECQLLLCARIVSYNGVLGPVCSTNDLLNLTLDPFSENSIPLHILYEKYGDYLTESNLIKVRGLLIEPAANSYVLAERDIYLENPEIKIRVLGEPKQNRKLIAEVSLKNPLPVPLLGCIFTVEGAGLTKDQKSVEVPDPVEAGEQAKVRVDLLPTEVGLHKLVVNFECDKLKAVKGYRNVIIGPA
Method: Consequently, glucosamine and derivatives thereof are transglutaminase inhibitors.
In the presence of various concentrations of […], which competes with putrescine, the reaction between [1,4-^14C] putrescine and succinylated casein, catalyzed by transglutaminase, was observed.
A reaction buffer (0.5 ml) was prepared as follows: 0.1 M triacetate pH 7.5, 1% succinylated casein, 1 mM EDTA, 10 mM CaCl2, 0.5% lubrol PX, 5 mM DTT, 0.15 M NaCl and 0.5 mCi [1,4-^14C] putrescine (Dupont-New England Nuclear; 118 Ci/mole). To this reaction buffer were added 2 μl of a purified transglutaminase enzyme (Sigma T5398), glucosamine and a 50 mM Tris-acetate buffer so as to yield a final volume of 100 μl, having a glucosamine concentration of 1, or 100 mM. Mixing was followed by reaction at 37° C. for 1 hour before termination with 4.5 ml of cold (4° C.) 7.5% TCA. The TCA-precipitates thus formed were filtered through a GF/glass fiber filter, washed with 10 volumes of 5% TCA and dried, followed by measuring transglutaminase-catalyzed ^14C-putrescine-labelled casein with a β-counter.
The relative inhibition activities (%) of glucosamine against transglutaminase are depicted in FIG. 2.

[2] = system: iNOS (NF-kB-inducible) in LPS-activated BV2 microglia; assay: iNOS Western blotting in LPS-activated BV2 microglia cells; assay type: cell-based, murine; details: LPS 100 ng/ml 24 hrs; glucosamine 1, 10 or 100 mM; FIG. 3A
Method: The inhibitory effects of glucosamine on transglutaminase were determined by monitoring the activity of the transcriptional factor NF-kB through the measurement of level of NF-kB-inducible iNOS.
The cells were maintained in DMEM (Dulbecco's Modified Eagle's medium) (Invitrogen) supplemented with 10% fetal bovine serum and penicillin/streptomycin in a 5% CO2, 37° C. incubator. BV-2 was activated by treatment with LPS (100 ng/ml; Sigma) for 24 hrs.
In order to detect the intracellular activity of transglutaminase, the cells were incubated for 24 hrs in a medium supplemented with 4.5 nmoles of ^14C-putrescine (1.11×10^6 dpm)/ml. Cells were grouped according to treatment without or with 1, 10 or 100 mM of glucosamine. Following LPS treatment for 24 hrs, cells in each group were homogenized with a radioimmunoprecipitation assay buffer (1×PBS, 1% Nonidet P-40, 0.5% sodium deoxycholate and 0.1% SDS) containing a protease inhibitor. The homogenates were centrifuged at 100,000×g for 1 hr. and the supernatants were subjected to iNOS Western blotting.
After being separated from a 10˜20% gradient SDS gel using Tricine buffer (Invitrogen), the Western blotting samples were transferred onto polyvinylidene difluoride membrane (Invitrogen). Western blotting was conducted as usual. […]

[3] = biological target: T2, transglutaminase in LPS-activated microglia cells (Mus musculus, UniProt P21981); assay: Intracellular transglutaminase activity in LPS-activated BV2 microglia (14C-putrescine incorporation); assay type: cell-based, murine; details: LPS 24 hrs; glucosamine 1, 10 or 100 mM; FIG. 3B
T2 construct: In order to detect the intracellular activity of transglutaminase, the cells were incubated for 24 hrs; endogenous in cells
T2 sequence (P21981 1-686): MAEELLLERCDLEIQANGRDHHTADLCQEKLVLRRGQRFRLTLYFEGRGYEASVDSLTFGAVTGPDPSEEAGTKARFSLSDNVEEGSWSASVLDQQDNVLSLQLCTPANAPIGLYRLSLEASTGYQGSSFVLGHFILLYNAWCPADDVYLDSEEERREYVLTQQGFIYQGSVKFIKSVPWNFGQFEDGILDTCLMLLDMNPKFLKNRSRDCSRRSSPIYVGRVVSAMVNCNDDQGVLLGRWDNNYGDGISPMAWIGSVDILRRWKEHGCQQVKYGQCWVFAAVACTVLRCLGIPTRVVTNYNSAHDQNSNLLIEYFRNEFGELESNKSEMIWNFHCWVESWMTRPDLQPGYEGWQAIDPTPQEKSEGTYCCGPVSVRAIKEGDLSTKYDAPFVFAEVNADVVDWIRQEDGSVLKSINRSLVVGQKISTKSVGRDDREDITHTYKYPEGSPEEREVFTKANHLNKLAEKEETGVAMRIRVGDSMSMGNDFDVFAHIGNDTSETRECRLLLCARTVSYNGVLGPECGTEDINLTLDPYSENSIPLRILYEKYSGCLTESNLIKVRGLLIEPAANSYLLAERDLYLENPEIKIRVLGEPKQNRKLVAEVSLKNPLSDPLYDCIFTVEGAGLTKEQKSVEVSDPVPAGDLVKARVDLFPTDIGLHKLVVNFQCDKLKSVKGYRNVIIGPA

[4] = system: transglutaminase in SH-SY5Y/TG cells (I-κBα level); assay: I-κBα Western blotting in SH-SY5Y/TG neuroblastoma cells; assay type: cell-based, human; details: 10 mM glucosamine, 3 hrs, cytosol fraction; FIG. 4A
Method: For use in the transfection of transglutaminase, the human neuroblastoma cell SH-SY5Y was purchased from American Type Culture Collection. SH-SY5Y was cultured in DMEM (Dulbecco's modified Eagle's Medium)/Ham F12 medium (50:50) supplemented with 10% heat-inactivated fetal bovine serum, glutamine, and penicillin/streptomycin. In order to avoid clonal mutation, an Flp-In™ system (Invitrogen, Co) was introduced. SH-SY5Y transformed with a mock vector was used as a […] (Wild) while a full-length transglutaminase gene was cloned in a pcDNA5/FRT vector to prepare SH-SY5Y/TG. Allowing NF-kB to be usually active therein (J. Biol. Chem. 279, 53725-53735, 2004), the strain thus constructed is widely used as an NF-kB activation model based on the overexpression of transglutaminase. […] The inhibitory effects of putative transglutaminase inhibitors were investigated by incubating SH-SY5Y/TG cells in the presence of 10 mM glucosamine (GM), 200 μM cystamine (CTM), and 2 nM iodoacetamide (IAA) for 3 hrs, followed by obtaining cytosol fractions with the aid of a nuclear extraction kit (Sigma) from the cells. As a negative control, a cytosol fraction obtained from a cell culture incubated in the absence of any transglutaminase inhibitor was used (Ct). […]

For `N[C@H]1C(O)O[C@H](CO)[C@@H](O)[C@@H]1O` (stereo partly shown) [glucosamine], the “activity of transglutaminase (relative inhibition activity)” value [1] was “poorer activity of transglutaminase; also recorded: inhibited in a glucosamine dose-dependent manner”, the “level of expression of iNOS” value [2] was “reduces the level of expression of iNOS” and the “activity of transglutaminase in LPS-activated microglia” value [3] was “inhibited in a glucosamine dose-dependent manner”. The “transglutaminase inhibition shown by level of expression of I-κBα” value [4] was “identified as a transglutaminase inhibitor”.
